{
  "source": "paper PMC9147192",
  "about": "“Small Molecule Arranged Thermal Proximity Coaggregation (smarTPCA)—A Novel Approach to Characterize Protein–Protein Interactions in Living Cells by Similar Isothermal Dose–Responses” (International Journal of Molecular Sciences, 2022)",
  "key": {"[1]": {"target": "T1, UBE2O (Homo sapiens, UniProt Q9C0C9)", "T1 construct": "endogenous in cells; host or cells: HL-60 (ATCC CCL-240)", "T1 sequence (Q9C0C9 1-1292)": "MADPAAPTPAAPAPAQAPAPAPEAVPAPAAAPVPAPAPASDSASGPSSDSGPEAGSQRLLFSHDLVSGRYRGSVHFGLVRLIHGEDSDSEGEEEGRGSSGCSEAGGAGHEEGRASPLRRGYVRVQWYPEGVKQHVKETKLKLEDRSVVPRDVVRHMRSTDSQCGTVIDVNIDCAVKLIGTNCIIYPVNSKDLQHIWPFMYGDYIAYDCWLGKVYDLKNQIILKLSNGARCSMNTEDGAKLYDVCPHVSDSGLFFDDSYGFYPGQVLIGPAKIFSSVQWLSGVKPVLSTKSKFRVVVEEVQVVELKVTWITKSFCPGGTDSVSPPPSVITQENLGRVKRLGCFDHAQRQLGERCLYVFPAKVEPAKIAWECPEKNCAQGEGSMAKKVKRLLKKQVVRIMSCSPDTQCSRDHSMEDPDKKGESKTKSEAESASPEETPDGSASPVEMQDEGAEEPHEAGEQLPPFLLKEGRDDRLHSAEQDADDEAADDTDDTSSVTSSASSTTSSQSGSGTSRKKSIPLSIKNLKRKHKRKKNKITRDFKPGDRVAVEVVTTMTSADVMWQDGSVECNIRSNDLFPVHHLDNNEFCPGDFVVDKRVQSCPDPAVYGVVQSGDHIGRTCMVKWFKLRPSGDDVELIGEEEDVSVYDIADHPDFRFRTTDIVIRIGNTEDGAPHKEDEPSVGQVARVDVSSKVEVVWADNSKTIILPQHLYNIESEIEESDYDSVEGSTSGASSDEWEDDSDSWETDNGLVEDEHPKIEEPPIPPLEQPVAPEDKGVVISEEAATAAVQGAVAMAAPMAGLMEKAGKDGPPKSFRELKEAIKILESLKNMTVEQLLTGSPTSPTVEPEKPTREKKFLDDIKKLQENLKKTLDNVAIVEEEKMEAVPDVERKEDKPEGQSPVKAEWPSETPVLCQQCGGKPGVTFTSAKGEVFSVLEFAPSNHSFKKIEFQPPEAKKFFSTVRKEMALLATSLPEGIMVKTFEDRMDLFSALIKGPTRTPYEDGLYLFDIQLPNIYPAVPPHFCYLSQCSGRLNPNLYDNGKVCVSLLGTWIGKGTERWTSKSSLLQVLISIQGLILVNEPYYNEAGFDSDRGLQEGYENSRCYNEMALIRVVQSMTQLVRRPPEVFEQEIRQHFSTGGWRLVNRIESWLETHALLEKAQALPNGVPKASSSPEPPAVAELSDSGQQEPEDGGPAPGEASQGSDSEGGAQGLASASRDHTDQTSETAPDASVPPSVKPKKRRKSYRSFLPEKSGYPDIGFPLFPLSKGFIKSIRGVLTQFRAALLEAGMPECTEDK", "assay": "TPP-CCR in living HL-60 cells", "assay_type": "cell-based", "text": "(§1) Therefore, we performed TPP with compound concentration range (TPP-CCR) experiments according to published procedures. In brief, after preparing tryptic peptides from the non-denatured protein fractions (used for immunoblotting in the previous sections) applying the SP3 method, the peptides were labeled using TMT10plex, coding for inhibitor concentration, and the samples belonging to a TMT set were combined, offline high-pH fractionated, and analyzed by MS.\n(§2) HL-60 cells were expanded as described above for CETSA and TPP-TR to 1.25 million cells per milliliter. […] A number of 2.5 million cells in 2 mL of medium were added to each tube and incubated (1 h, 37 °C). After centrifugation (300 rcf, 3 min, r.t.) and removing all of the supernating culture medium, the cells were washed once with 2 mL and once with 0.5 mL PBS (r.t.) by gently resuspending the cells, followed by centrifugation (300 rcf, 3 min, r.t.) and the complete removal of the supernatants.\n(§3) After transferring the cells from the 2 mL Eppendorf tubes into correspondingly labeled PCR tubes (tube strips) using 100 µL of ice-cold PBS supplemented with protease inhibitors for resuspending the cells, the samples were further processed as described above for CETSA and TPP-TR, however, by applying a single treatment temperature of 51 °C.\n(§4) For each sample set comprising ten compound concentration range samples, a same volume of the cell extracts containing the fraction of soluble, non-denatured proteins, corresponding to an average of 5 µg total protein, was used for further analysis. The calculated volume was respectively transferred into PCR tubes of a tube strip and supplemented with SDS sample buffer without DTT and bromophenol blue (final concentrations: 7.5% glycerol, 3% SDS, 37.5 mM Tris/HCl pH 7.0) and ddH2O to a final volume of 10 µL, respectively. Reduction and alkylation were performed by addition of 2.5 µL 100 mM dithiothreitol (DTT; incubation: 20 min, 56 °C, 1000 rpm in an Eppendorf ThermoMixer C, covering the tubes with aluminum foil to minimize condensation in the lids) and 3.33 µL 300 mM iodoacetamide (IAA; incubation: 15 min, r.t., in the dark without shaking), as well as 2.5 µL 100 mM DTT (incubation: 15 min, r.t., without shaking; quenching of excess of IAA). […] The beads were collected and washed (3× 200 µL 80% ethanol p.a. in HPLC-MS grade water, 1 × 200 µL acetonitrile (ACN; HPLC gradient grade)) using a device for handling of magnetic particles [patent US20100200405A1]. The ACN of the last washing step was completely removed by aspiration without letting the beads dry out.\n(§5) Tryptic digest was performed on-bead by resuspending (use of an ultrasound bath may be required) the beads in 20 µL 50 mM TEAB in HPLC-MS grade water containing 0.1 µg Trypsin/Lys-C mix and 16.5 h incubation at 37 °C and 1000 rpm (Eppendorf ThermoMixer C, covering the tubes with aluminum foil to minimize condensation in the lids). Tryptic fragmentation of proteins was optimized by addition of another 0.1 µg of Trypsin/Lys-C mix in 2 µL 50 mM TEAB and 4 h incubation at 37 °C and 1000 rpm. After centrifugation for about 1 min in a table top centrifuge and magnetic concentration and retention of the beads at the inner tube wall, the supernatants containing the peptides were transferred into new PCR tubes (of tube strips) and were stored at −80 °C. The beads were discarded.\n(§6) Half of the peptide samples (11 µL containing about 2.5 µg peptides) were transferred into new PCR tubes (of tube strips) and allowed to equilibrate to r.t. TMT labeling reagents were reconstituted as described for the TPP-TR samples, and 1 µL each was added to the reconstituted peptides according to the following scheme and homogenized immediately by aspiration and dispensing:\n(§7) Peptide separation was performed as described above for the analysis of TPP-TR samples. […]"}, "[2]": {"target": "T2, UGGT1 (Homo sapiens, UniProt Q9NYU2)", "T2 construct": "endogenous in cells; host or cells: HL-60 (ATCC CCL-240)", "T2 sequence (Q9NYU2 43-1555)": "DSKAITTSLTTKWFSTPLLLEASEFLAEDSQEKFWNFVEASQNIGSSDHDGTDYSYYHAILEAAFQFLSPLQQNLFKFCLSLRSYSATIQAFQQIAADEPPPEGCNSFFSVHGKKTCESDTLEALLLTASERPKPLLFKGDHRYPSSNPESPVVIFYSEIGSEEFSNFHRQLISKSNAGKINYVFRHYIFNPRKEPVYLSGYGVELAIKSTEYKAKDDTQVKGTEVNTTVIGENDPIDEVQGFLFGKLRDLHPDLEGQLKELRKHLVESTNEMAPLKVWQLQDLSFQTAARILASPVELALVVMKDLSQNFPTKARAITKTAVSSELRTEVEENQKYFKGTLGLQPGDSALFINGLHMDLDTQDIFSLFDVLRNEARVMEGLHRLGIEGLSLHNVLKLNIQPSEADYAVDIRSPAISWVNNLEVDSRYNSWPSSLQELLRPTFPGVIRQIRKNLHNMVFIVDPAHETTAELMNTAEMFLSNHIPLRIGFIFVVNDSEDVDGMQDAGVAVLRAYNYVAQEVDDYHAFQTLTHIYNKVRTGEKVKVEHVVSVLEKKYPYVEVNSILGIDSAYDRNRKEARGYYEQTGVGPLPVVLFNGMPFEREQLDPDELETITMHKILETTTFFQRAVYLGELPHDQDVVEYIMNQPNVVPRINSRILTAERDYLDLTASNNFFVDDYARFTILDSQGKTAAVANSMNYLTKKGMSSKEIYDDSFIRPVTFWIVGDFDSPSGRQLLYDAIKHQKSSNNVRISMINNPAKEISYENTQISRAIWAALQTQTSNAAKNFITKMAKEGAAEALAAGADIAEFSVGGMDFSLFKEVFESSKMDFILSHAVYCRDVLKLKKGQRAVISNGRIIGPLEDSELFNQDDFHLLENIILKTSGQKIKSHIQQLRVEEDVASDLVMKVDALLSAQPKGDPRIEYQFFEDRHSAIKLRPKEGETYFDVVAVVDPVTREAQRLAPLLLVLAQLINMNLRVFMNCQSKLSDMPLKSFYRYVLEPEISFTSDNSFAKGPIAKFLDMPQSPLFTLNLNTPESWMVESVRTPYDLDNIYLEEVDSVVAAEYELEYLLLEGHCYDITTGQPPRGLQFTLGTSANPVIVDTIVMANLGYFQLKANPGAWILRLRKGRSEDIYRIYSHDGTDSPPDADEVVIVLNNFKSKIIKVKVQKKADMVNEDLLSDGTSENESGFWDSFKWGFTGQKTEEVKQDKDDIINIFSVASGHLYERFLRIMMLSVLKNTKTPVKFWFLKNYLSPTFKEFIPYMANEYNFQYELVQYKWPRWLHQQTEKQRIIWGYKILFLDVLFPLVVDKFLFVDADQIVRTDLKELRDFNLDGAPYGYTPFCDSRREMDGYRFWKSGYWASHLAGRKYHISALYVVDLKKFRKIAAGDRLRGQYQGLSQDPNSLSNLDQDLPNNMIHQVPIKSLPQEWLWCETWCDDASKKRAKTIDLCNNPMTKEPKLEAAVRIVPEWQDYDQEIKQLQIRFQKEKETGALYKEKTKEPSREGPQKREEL", "assay": "TPP-CCR in living HL-60 cells", "assay_type": "cell-based", "text": "as §1, §2, §3, §4, §5, §6, §7"}, "[3]": {"conditions": "living HL-60 cells, […] °C, TMT-MS"}},
  "data": [
    {"smiles": "Cc1cnc(Nc2ccc(F)cc2Cl)nc1-c1c[nH]c(C(=O)N[C@H](CO)c2cccc(Cl)c2)c1", "note": "[ERK 11e]", "values": [
      {"measurement": "Hill slope", "setting": "[1]; TPP-CCR, living cells, UBE2O", "result": 0.37},
      {"measurement": "Hill slope (UBE2O)", "setting": "[1]; [3]", "result": 0.37},
      {"measurement": "EC50", "setting": "[1]; living HL-60 cells, […] °C, TMT-MS, read-out: pEC50 (UBE2O) (converted)", "result": 186, "unit": "nM"},
      {"measurement": "Hill slope", "setting": "[2]; TPP-CCR, living cells, UGGT1", "result": 1.97},
      {"measurement": "Hill slope (UGGT1)", "setting": "[2]; [3]", "result": 1.97},
      {"measurement": "EC50", "setting": "[2]; living HL-60 cells, […] °C, TMT-MS, read-out: pEC50 (UGGT1) (converted)", "result": 5370, "unit": "nM"}
    ]}
  ]
}
